Reference: ChEMBL document CHEMBL3244338, “Antineoplastic agents. Structure-activity relationship study of bis(substituted aminoalkylamino)anthraquinones” (J Med Chem, 1978)
Calls of active or inactive are those of the source. The rule behind the calls is not given here.

Experiments:
P388 [1] = test: Antitumor activity against mouse P388 cells allografted in BDF1 mouse assessed as mouse survival at 12.5 mg/kg administered 24 hrs post challenge relative to control; assay type: functional, organism-based; design: dose 12.5 mg/kg
P388 [2] = test: Antitumor activity against mouse P388 cells allografted in BDF1 mouse assessed as increase in survival time at 12.5 mg/kg administered 24 hrs post challenge relative to control; assay type: functional
Mus musculus [3] = test: Toxicity in mouse P388 cells allografted BDF1 mouse assessed as body weight difference at 12.5 mg/kg administered 24 hrs post challenge relative to control; assay type: organism-based; design: dose 12.5 mg/kg; conditions: in vivo
P388 [4] = test: Antitumor activity against mouse P388 cells allografted in BDF1 mouse assessed as mouse survival at 50 mg/kg administered 24 hrs post challenge relative to control; assay type: functional, organism-based; design: dose 50 mg/kg
P388 [5] = test: Antitumor activity against mouse P388 cells allografted in BDF1 mouse assessed as mouse survival at 6.25 mg/kg administered 24 hrs post challenge relative to control; assay type: functional, organism-based; design: dose 6.25 mg/kg
P388 [6] = test: Antitumor activity against mouse P388 cells allografted in BDF1 mouse assessed as increase in survival time at 100 mg/kg administered 24 hrs post challenge relative to control; assay type: functional
P388 [7] = test: Antitumor activity against mouse P388 cells allografted in BDF1 mouse assessed as increase in survival time at 50 mg/kg administered 24 hrs post challenge relative to control; assay type: functional
P388 [8] = test: Antitumor activity against mouse P388 cells allografted in BDF1 mouse assessed as increase in survival time at 25 mg/kg administered 24 hrs post challenge relative to control; assay type: functional
P388 [9] = test: Antitumor activity against mouse P388 cells allografted in BDF1 mouse assessed as increase in survival time at 6.25 mg/kg administered 24 hrs post challenge relative to control; assay type: functional
Mus musculus [10] = test: Toxicity in mouse P388 cells allografted BDF1 mouse assessed as body weight difference at 100 mg/kg administered 24 hrs post challenge relative to control; assay type: organism-based; design: dose 100 mg/kg; conditions: in vivo
Mus musculus [11] = test: Toxicity in mouse P388 cells allografted BDF1 mouse assessed as body weight difference at 50 mg/kg administered 24 hrs post challenge relative to control; assay type: organism-based; design: dose 50 mg/kg; conditions: in vivo
Mus musculus [12] = test: Toxicity in mouse P388 cells allografted BDF1 mouse assessed as body weight difference at 25 mg/kg administered 24 hrs post challenge relative to control; assay type: organism-based; design: dose 25 mg/kg; conditions: in vivo
Mus musculus [13] = test: Toxicity in mouse P388 cells allografted BDF1 mouse assessed as body weight difference at 6.25 mg/kg administered 24 hrs post challenge relative to control; assay type: organism-based; design: dose 6.25 mg/kg; conditions: in vivo
P388 [14] = test: Antitumor activity against mouse P388 cells allografted in BDF1 mouse assessed as mouse survival at 32 mg/kg administered 24 hrs post challenge relative to control; assay type: functional, organism-based; design: dose 32 mg/kg
P388 [15] = test: Antitumor activity against mouse P388 cells allografted in BDF1 mouse assessed as mouse survival at 16 mg/kg administered 24 hrs post challenge relative to control; assay type: functional, organism-based; design: dose 16 mg/kg
P388 [16] = test: Antitumor activity against mouse P388 cells allografted in BDF1 mouse assessed as mouse survival at 8 mg/kg administered 24 hrs post challenge relative to control; assay type: functional, organism-based; design: dose 8 mg/kg
P388 [17] = test: Antitumor activity against mouse P388 cells allografted in BDF1 mouse assessed as mouse survival at 4 mg/kg administered 24 hrs post challenge relative to control; assay type: functional, organism-based; design: dose 4 mg/kg
P388 [18] = test: Antitumor activity against mouse P388 cells allografted in BDF1 mouse assessed as increase in survival time at 32 mg/kg administered 24 hrs post challenge relative to control; assay type: functional
P388 [19] = test: Antitumor activity against mouse P388 cells allografted in BDF1 mouse assessed as increase in survival time at 16 mg/kg administered 24 hrs post challenge relative to control; assay type: functional
P388 [20] = test: Antitumor activity against mouse P388 cells allografted in BDF1 mouse assessed as increase in survival time at 8 mg/kg administered 24 hrs post challenge relative to control; assay type: functional
P388 [21] = test: Antitumor activity against mouse P388 cells allografted in BDF1 mouse assessed as increase in survival time at 4 mg/kg administered 24 hrs post challenge relative to control; assay type: functional
Mus musculus [22] = test: Toxicity in mouse P388 cells allografted BDF1 mouse assessed as body weight difference at 32 mg/kg administered 24 hrs post challenge relative to control; assay type: organism-based; design: dose 32 mg/kg; conditions: in vivo
Mus musculus [23] = test: Toxicity in mouse P388 cells allografted BDF1 mouse assessed as body weight difference at 16 mg/kg administered 24 hrs post challenge relative to control; assay type: organism-based; design: dose 16 mg/kg; conditions: in vivo
Mus musculus [24] = test: Toxicity in mouse P388 cells allografted BDF1 mouse assessed as body weight difference at 8 mg/kg administered 24 hrs post challenge relative to control; assay type: organism-based; design: dose 8 mg/kg; conditions: in vivo
Mus musculus [25] = test: Toxicity in mouse P388 cells allografted BDF1 mouse assessed as body weight difference at 4 mg/kg administered 24 hrs post challenge relative to control; assay type: organism-based; design: dose 4 mg/kg; conditions: in vivo
L1210 [26] = test: Antitumor activity against mouse L1210 cells allografted in BDF1 mouse assessed as increase in survival time at 25 mg/kg administered 24 hrs post challenge relative to control; assay type: functional
L1210 [27] = test: Antitumor activity against mouse L1210 cells allografted in BDF1 mouse assessed as increase in survival time at 12.5 mg/kg administered 24 hrs post challenge relative to control; assay type: functional
L1210 [28] = test: Antitumor activity against mouse L1210 cells allografted in BDF1 mouse assessed as increase in survival time at 6.25 mg/kg administered 24 hrs post challenge relative to control; assay type: functional
P388 [29] = test: Antitumor activity against mouse P388 cells allografted in BDF1 mouse assessed as increase in survival time at 200 mg/kg administered 24 hrs post challenge relative to control; assay type: functional
P388 [30] = test: Antitumor activity against mouse P388 cells allografted in BDF1 mouse assessed as mouse survival at 100 mg/kg administered 24 hrs post challenge relative to control; assay type: functional, organism-based; design: dose 100 mg/kg
P388 [31] = test: Antitumor activity against mouse P388 cells allografted in BDF1 mouse assessed as increase in survival time at 400 mg/kg administered 24 hrs post challenge relative to control; assay type: functional
P388 [32] = test: Antitumor activity against mouse P388 cells allografted in BDF1 mouse assessed as mouse survival at 400 mg/kg administered 24 hrs post challenge relative to control; assay type: functional, organism-based; design: dose 400 mg/kg
P388 [33] = test: Antitumor activity against mouse P388 cells allografted in BDF1 mouse assessed as mouse survival at 200 mg/kg administered 24 hrs post challenge relative to control; assay type: functional, organism-based; design: dose 200 mg/kg
Mus musculus [34] = test: Toxicity in mouse P388 cells allografted BDF1 mouse assessed as body weight difference at 400 mg/kg administered 24 hrs post challenge relative to control; assay type: organism-based; design: dose 400 mg/kg; conditions: in vivo
Mus musculus [35] = test: Toxicity in mouse P388 cells allografted BDF1 mouse assessed as body weight difference at 200 mg/kg administered 24 hrs post challenge relative to control; assay type: organism-based; design: dose 200 mg/kg; conditions: in vivo
P388 [36] = test: Antitumor activity against mouse P388 cells allografted in BDF1 mouse assessed as increase in survival time at 3.13 mg/kg administered 24 hrs post challenge relative to control; assay type: functional
P388 [37] = test: Antitumor activity against mouse P388 cells allografted in BDF1 mouse assessed as mouse survival at 3.13 mg/kg administered 24 hrs post challenge relative to control; assay type: functional, organism-based; design: dose 3.13 mg/kg
Mus musculus [38] = test: Toxicity in mouse P388 cells allografted BDF1 mouse assessed as body weight difference at 3.13 mg/kg administered 24 hrs post challenge relative to control; assay type: organism-based; design: dose 3.13 mg/kg; conditions: in vivo
P388 [39] = test: Antitumor activity against mouse P388 cells allografted in BDF1 mouse assessed as mouse survival at 25 mg/kg administered 24 hrs post challenge relative to control; assay type: functional, organism-based; design: dose 25 mg/kg

With `CNCCNc1ccc(NCCNC)c2c1C(=O)c1ccccc1C2=O` the Activity (P388 [1]) was “Active”, the T/C (P388 [2]) was 200% and the Activity (Mus musculus [3]) was -1.9 g.
With `O=C1c2ccccc2C(=O)c2c(NCCCNCCO)ccc(NCCCNCCO)c21` the Activity (P388 [4]) was “Active”, the Activity (P388 [1]) was “Active” and the Activity (P388 [5]) was “Active”. It also gave a T/C (P388 [6]) of 98%, a T/C (P388 [7]) of 133% and a T/C (P388 [8]) of 130%. For the same molecule, the T/C (P388 [2]) was 117%, the T/C (P388 [9]) was 101% and the Activity (Mus musculus [10]) was -2.6 g. It also gave an Activity (Mus musculus [11]) of -2.1 g, an Activity (Mus musculus [12]) of -2.1 g and an Activity (Mus musculus [3]) of -1.4 g. For the same molecule, the Activity (Mus musculus [13]) was 0.9 g.
`O=C1c2ccccc2C(=O)c2c(NCCNCCO)ccc(NCCNCCO)c21` [AMETANTRONE] was tested, and the Activity (P388 [14]) was “Active”, the Activity (P388 [15]) was “Active” and the Activity (P388 [16]) was “Active”. The Activity (P388 [17]) was “Active”, the T/C (P388 [18]) was 81% and the T/C (P388 [19]) was 275%. The T/C (P388 [20]) was 276%, the T/C (P388 [21]) was 275% and the Activity (Mus musculus [22]) was -5.9 g. It also gave an Activity (Mus musculus [23]) of -3.9 g, an Activity (Mus musculus [24]) of -2 g and an Activity (Mus musculus [25]) of 0 g. It also gave a T/C (L1210 [26]) of 272%, a T/C (L1210 [27]) of 227% and a T/C (L1210 [28]) of 156%.
With `COc1ccc(CCNc2ccc(NCCc3ccc(OC)c(OC)c3)c3c2C(=O)c2ccccc2C3=O)cc1OC` the T/C (P388 [29]) was 101%, the Activity (P388 [30]) was “Active” and the T/C (P388 [6]) was 86%. For the same molecule, the T/C (P388 [31]) was 91%, the Activity (P388 [32]) was “Active” and the Activity (P388 [33]) was “Active”. It also gave an Activity (Mus musculus [10]) of -1.7 g, an Activity (Mus musculus [34]) of -2.9 g and an Activity (Mus musculus [35]) of -3.2 g.
With `CCNCCNc1ccc(NCCNCC)c2c1C(=O)c1ccccc1C2=O` the Activity (P388 [5]) was “Active”, the T/C (P388 [8]) was 132% and the T/C (P388 [2]) was 168%. The T/C (P388 [9]) was 149%, the T/C (P388 [36]) was 142% and the Activity (P388 [37]) was “Active”. The Activity (Mus musculus [12]) was -4.8 g, the Activity (Mus musculus [3]) was -2.8 g and the Activity (Mus musculus [13]) was -2.2 g. The Activity (Mus musculus [38]) was -2.3 g.
In the case of `O=C1c2ccccc2C(=O)c2c(NCCCCCO)ccc(NCCCCCO)c21`, the Activity (P388 [30]) is reported as “Active”, the Activity (P388 [4]) is reported as “Active” and the Activity (P388 [39]) is reported as “Active”. For the same molecule, the T/C (P388 [6]) was 88%, the T/C (P388 [7]) was 78% and the T/C (P388 [8]) was 88%. It also gave an Activity (Mus musculus [10]) of -4 g, an Activity (Mus musculus [11]) of -1.5 g and an Activity (Mus musculus [12]) of -1.4 g.
`O=C1c2ccccc2C(=O)c2c(NCCN3CCCCC3)ccc(NCCN3CCCCC3)c21` was tested, and the Activity (P388 [30]) was “Active”, the Activity (P388 [4]) was “Active” and the Activity (P388 [39]) was “Active”. For the same molecule, the T/C (P388 [6]) was 128%, the T/C (P388 [7]) was 110% and the T/C (P388 [8]) was 104%. For the same molecule, the Activity (Mus musculus [10]) was -4.5 g, the Activity (Mus musculus [11]) was -2.9 g and the Activity (Mus musculus [12]) was -3.6 g.
